Data set [1] is described as follows: Taurolidine-induced toxicity in athymic (nude) female mice. It counts as in vivo. The note with it: for mortality (%): i.p., three consecutive days, nude female mice. Here is the method:
Control animals received 1 ml injections of 5% Kollidon 17PF alone. Animals were examined daily and body weight recorded twice weekly. A reduction in body weight of greater than 10% was considered significant. The maximally tolerated dose (MTD) was considered to be the dose which produced ˜10% mortality.
During the injection regimen, and daily thereafter for 30 d, mice were weighed and examined. Experiments were repeated a minimum of three times and mortality and weight loss data pooled.

Data set [2] relates to TNF; interleukins 1, 6, and 10; VEGF; TGF. As to the kind of experiment: Angiogenesis factors in patients with metastatic colon cancer. It is filed as in vivo, human. To be noted: treated subjects compared to subjects receiving placebo. Here is the method: Patients with metastatic colon cancer were treated with taurolidine and several factors controlling angiogenesis were measured.

Data set [3] deals with human and murine tumor cell lines. Nature of the data set: Growth inhibition, panel of selected human and murine tumor cell lines. It is filed as cell-based. The note with it: 72 h; 3 d exposure; panel of 12 selected human and murine tumor cell lines; read-out: IC50s, growth inhibition across all cell lines evaluated. As for the experimental part:
One ml of this cell suspension was added to each well of a 12 well cell culture plate that contained 3 ml of appropriate media plus serum. […] Control wells received 40 μl of 5% Kollidon 17PF alone. Seventy-two hours later, all cells were harvested by trypsinization and cell number determined electronically using a Coulter Model Z1 particle counter (Coulter Corp., Miami, Fla.) to assess cell growth inhibition. Each experiment was performed in duplicate and repeated a minimum of three times.
Cells were seeded at a density of 1-5×10^4 cells in each well of a 6 well tissue culture flask. […] After three days, cells were harvested by trypsinization and cell number determined electronically. Cell growth inhibition was determined by comparison to non-Taurolidine exposed control cultures. The IC50 was calculated as the concentration required to inhibit cell number by 50%.

The subject of data set [4] is HL-60 human promyelocytic cell line. As to the kind of experiment: Apoptosis induction in HL-60 cells. It is filed as cell-based. The note with it: non-adherent cancer cell models.
Data set [5] deals with activated human T-cell cultures. Nature of the data set: Cytotoxic and apoptotic activity in activated human T-cell cultures. It is filed as cell-based. An excerpt: (§1) This observation was confirmed using normal (non-tumor) primary cells derived from animals, which are known to be free of tumors.
In data set [6] the test system is PA-1. Nature of the data set: Annexin-V FITC binding (phosphotidylserine externalization), PA-1. The note with it: 24 h exposure. It is filed as cell-based, human. Here is the method: Three×10^5 cells were seeded in plastic tissue culture flasks. […] Control cultures received an appropriate volume of Kollidine-17P. After an additional 24 h, cells were harvested and phosphotidylserine externalization determined by assessing Annexin-V FITC binding using cytofluorometric techniques. Each bar represents the mean±SE of four determinations. **p≦0.01, ***p≦0.001
Cell membrane phosphotidylserine externalization, as a reflection of the potential induction of apoptosis, was assessed by flow cytometry methods using the ApoAlert® Annexin-V/FITC assay kit. Briefly, 1×10^6 cells were incubated for 24 h in tissue culture medium containing serum. […] Control cultures received 5% Kollidon 17PF alone. Twenty-four hours later, all cells were harvested by trypsinization. The harvested cells were resuspended in 200 μl of binding buffer and then incubated for 5-15 min in a solution containing 1 μg/ml Annexin-V FITC at room temperature in the dark. The cells were then analyzed to quantitate Annexin-V binding by cytofluorometric techniques that utilized FACScan using the ModFit LT program with statistical analysis as described above.

For data set [7], the system named is SKOV-3. As to the kind of experiment: Flow cytometry cell cycle distribution / DNA debris, SKOV-3. It counts as cell-based, human. To be noted: 48 h exposure. Here is the method:
(§2) Three×10^5 cells were seeded in plastic tissue culture flasks. […] Control cultures received an appropriate volume of Kollidine-17P. […] The percentage of DNA debris in the sub-G0/G1 region was assessed using cytofluorometric techniques. Each bar represents the mean (±SE) of three determinations. **p≦0.01, ***p≦0.001, ****p≦0.0001
For flow cytometry studies, 1×10^6 PA-1, SKOV-3, or NIH-3T3 cells were incubated for 24 h in appropriate media containing serum. […] Control cultures for each cell line were incubated in media containing 40 μl of 5% Kollidon 17PF alone. Forty-eight hours later, all cells were harvested by trypsinization and prepared for cytofluorometric analysis by standard methods. For example, harvested cells were resuspended in ice cold phosphate-buffered saline at a final cell density of 2×10^6 cells/ml. The cells then were stained for 30 min at room temperature in the dark with a solution of 0.05 mg/ml propidium iodide, 0.6% Igepal, and 1% sodium citrate. Flow cytometry was performed by FACScan (Becton Dickinson, Plymouth, England) using the ModFit LT program (Becton Dickinson). […]
Three×10^5 cells were seeded in plastic tissue culture flasks. […] After an additional 48 h, cells were harvested, stained with propidium iodide, and cell cycle distribution assessed using cytofluorometric techniques. […]

Data set [8] relates to normal murine bone marrow cultures. As to the kind of experiment: Cytotoxic and apoptotic activity in normal murine bone marrow cultures. It is filed as cell-based.
Excerpt: as §1

The test system of data set [9] is NIH-3T3. As to the kind of experiment: Flow cytometry cell cycle distribution / DNA debris, NIH-3T3. It counts as cell-based, murine. As for the experimental part: as §2
For flow cytometry studies, 1×10^6 PA-1, SKOV-3, or NIH-3T3 cells were incubated for 24 h in appropriate media containing serum. […] Control cultures for each cell line were incubated in media containing 40 μl of 5% Kollidon 17PF alone. […] For example, harvested cells were resuspended in ice cold phosphate-buffered saline at a final cell density of 2×10^6 cells/ml. The cells then were stained for 30 min at room temperature in the dark with a solution of 0.05 mg/ml propidium iodide, 0.6% Igepal, and 1% sodium citrate. Flow cytometry was performed by FACScan (Becton Dickinson, Plymouth, England) using the ModFit LT program (Becton Dickinson). Statistical analysis was performed with the Kruskal Wallis non-parametric ANOVA test followed by Dunn's multiple comparisons test using Instat.
Three×10^5 cells were seeded in plastic tissue culture flasks. […] Control cultures received an appropriate volume of Kollidine-17P. After an additional 48 h, cells were harvested, stained with propidium iodide, and cell cycle distribution assessed using cytofluorometric techniques. Each value represents the percentage of cells in the noted cell cycle phases and is the mean±SEM of three determinations.

Entries after “also recorded” stand apart in the source; their conditions may differ.

For the molecule `O=S1(=O)CCN(CN2CCS(=O)(=O)NC2)CN1` [Taurolidine, Bis-(1,1-dioxoperhydro-1,2,4-thiadiazinyl-4)methane], the “mortality (%)” value amounted to 6% in data set [1] (10 mg/mouse/inj), 13% in data set [1] (20 mg/mouse/inj), 47% in data set [1] (25 mg/mouse/inj) and 100% in data set [1] (30 mg/mouse/inj). Further, in data set [1] (daily doses below 15 mg/mouse (˜650 mg/kg), 3 d i.p. bolus regimen), the tolerability result is “well-tolerated”. The “factors controlling the growth of blood vessels (TNF; interleukins 1, 6, and 10; VEGF; TGF)” value in data set [2] is on record as “found to be decreased”. For the same molecule, the IC50 in data set [3] lay within 9.6 to 34.2 µM. For the same molecule, the “apoptotic signalling events after exposure” value in data set [4] was “activation of caspases 3, 8 and 9”. Besides, the induction of apoptosis result in data set [5] and in data set [8] (normal murine bone marrow cultures) was “did not produce cellular changes consistent with the induction of apoptosis” in each case. Moreover, in data set [6], the “increase in Annexin-V binding (Annexin-V positive cells)” value is reported as 4 fold. Moreover, the “effect on cell cycle distribution” value in data set [7] was “reduced the percentage of cells in the G0/G1-phase and increased the percentage of cells in both S and G2/M; also recorded: concentration-dependent decrease in the percentage of cells in G0/G1 but increased the percentage of cells in both the S-phase and G2/M”; in data set [9] (NIH-3T3, 48 h exposure), “increased the percentage of cells in S-phase, decreased the percentage of cells in G0/G1; also recorded: decreased the percentage of cells in G0/G1 and increased the percentage of cells in S”. Further, the “DNA debris in the sub-G0/G1 region” value is “significantly increased DNA debris; also recorded: resulted in the appearance of DNA debris” in [7] (25-100 μM) and “did not increase DNA debris; also recorded: did not significantly affect the appearance of DNA debris” in [9] (NIH-3T3, 48 h exposure, 25-100 μM). For the same molecule, in data set [8] (normal murine bone marrow), the “concentrations required to inhibit cell proliferation” value is “concentrations in the mM range”. In addition, the “cell cycle kinetics and distribution” value in data set [9] (3T3, 24-hour exposure) was “significantly reduced the percentage of cells in both the S- and G2/M-phases”.
